Tests used:
[1] = biological target: norepinephrine transporter (Rattus norvegicus, UniProt Q63380); conditions: from Table 1
Experimental: Reactions were carried out in 50 mM TRIS-HCl (pH 7.4), containing 300 mM NaCl and 5 mM KCl at 0° C. to 4° C. for 4 hours. The reaction was terminated by rapid vacuum filtration onto glass fiber filters. Radioactivity trapped in the filters was determined and compared to control values in order to ascertain the interactions of the test compound with the norepinephrine uptake site.

[2] = 13-week oral toxicity study in rats (body weight, food consumption, clinical pathology, organ weights); type: in vivo, rat; conditions: for mean cumulative body weight gain, lower than control: end of 13-week study; for mean body weight, lower than control: end of study
Experimental: One hundred and forty Crl:CD®(SD)IGS BR rats were divided into 7 groups of 20 rats (ten male and ten female). […] Individual body weights were recorded at least weekly, beginning approximately two weeks prior to test article administration (study week-2). Mean body weights and mean body weight changes were calculated for the corresponding intervals. Final body weights (fasted) were recorded prior to the scheduled necropsy.
For toxicology assessment, all animals were observed three times daily for mortality and moribundity. Clinical examinations were performed daily and detailed physical examinations were performed weekly. Following 13 weeks of dose administration, all surviving animals were euthanized.

serotonin transporter = biological target: T1, serotonin transporter (Rattus norvegicus, UniProt P31652); assay: Serotonin transporter binding assay, [3H]citalopram; conditions: from Table 2
T1 construct: The receptor source was rat forebrain membrane; from tissue; host or cells: rat forebrain membranes
T1 sequence (P31652 whole entry): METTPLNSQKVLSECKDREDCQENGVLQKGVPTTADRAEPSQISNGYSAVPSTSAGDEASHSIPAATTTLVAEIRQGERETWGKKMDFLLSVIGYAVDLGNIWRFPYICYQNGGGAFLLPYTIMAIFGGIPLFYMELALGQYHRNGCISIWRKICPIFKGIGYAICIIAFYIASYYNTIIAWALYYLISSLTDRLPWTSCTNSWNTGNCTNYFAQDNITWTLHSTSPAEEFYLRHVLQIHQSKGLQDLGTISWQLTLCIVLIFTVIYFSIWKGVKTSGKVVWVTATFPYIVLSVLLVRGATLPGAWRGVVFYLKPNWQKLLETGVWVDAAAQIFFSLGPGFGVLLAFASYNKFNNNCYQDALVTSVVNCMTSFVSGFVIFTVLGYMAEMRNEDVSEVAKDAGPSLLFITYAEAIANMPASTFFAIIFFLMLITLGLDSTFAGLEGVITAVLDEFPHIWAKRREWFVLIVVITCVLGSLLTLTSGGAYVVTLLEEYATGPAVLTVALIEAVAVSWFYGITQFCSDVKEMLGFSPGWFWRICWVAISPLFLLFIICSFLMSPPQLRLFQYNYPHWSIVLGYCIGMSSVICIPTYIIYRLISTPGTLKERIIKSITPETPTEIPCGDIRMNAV
Experimental: The reference compound and positive control were (±)-desmethylimipramine. […] Reactions were carried out in 50 mM TRIS-HCl (pH 7.4) containing 120 mM NaCl and 5 mM KCl at 25° C. for 60 minutes. The reaction was terminated by rapid vacuum filtration onto glass fiber filters. Radioactivity trapped in the filters was determined using liquid scintillation spectrometry and compared to control values in order to ascertain any interactions of test compound with the serotonin transporter binding site.

[3] = Effect on weight gain in male DIO rats; type: in vivo, rat
Experimental: Male DIO rats, weighing approximately 200 g each were housed singly in plastic cages with wood litter and free access to food and water in a vivarium maintained under a 12 hour light/dark cycle at 21±3°. After an acclimatization period of 1 week, the studies were initiated. During the study period, access to food and water was restricted for 3 hours per day (1000 to 1300 hrs). On day 0, the amount of food and water consumed was measured in all rats in the absence of any treatment. […] A cannabinoid receptor blocker, termed AM251, and an enantiomer of fenfluramine, termed d-FEN1, both of which are known to regulate the melanocortin pathways in animals, were also administered for comparison purposes. Test compounds or vehicle were then orally administered in a volume of 5 mL/kg 60 minutes before access to food and water (0900 hrs). Body weight was measured prior to and 18 hours after administration of the various compounds.

Sequence of norepinephrine transporter (Q63380 1-617): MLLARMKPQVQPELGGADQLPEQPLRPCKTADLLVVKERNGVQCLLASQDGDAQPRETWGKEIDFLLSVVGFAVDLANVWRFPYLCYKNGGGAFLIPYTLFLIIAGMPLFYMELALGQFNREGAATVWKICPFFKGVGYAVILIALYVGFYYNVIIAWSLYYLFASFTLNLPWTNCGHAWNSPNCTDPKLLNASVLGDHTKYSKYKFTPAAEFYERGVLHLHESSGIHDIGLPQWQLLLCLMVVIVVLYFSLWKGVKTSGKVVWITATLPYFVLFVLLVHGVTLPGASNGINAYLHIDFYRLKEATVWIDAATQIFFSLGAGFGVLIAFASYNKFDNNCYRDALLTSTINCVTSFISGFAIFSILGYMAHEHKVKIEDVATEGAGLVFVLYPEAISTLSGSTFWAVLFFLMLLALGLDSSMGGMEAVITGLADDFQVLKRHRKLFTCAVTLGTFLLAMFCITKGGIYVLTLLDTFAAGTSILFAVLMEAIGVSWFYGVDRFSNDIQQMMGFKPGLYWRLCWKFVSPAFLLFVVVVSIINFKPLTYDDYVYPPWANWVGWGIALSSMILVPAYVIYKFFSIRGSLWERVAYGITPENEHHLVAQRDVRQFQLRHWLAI

With Cl.Clc1ccc([C@@]23CNC[C@@H]2C3)cc1Cl (single isomer, unassigned) [(+)-1-(3,4-dichlorophenyl)-3-azabicyclo[3.1.0]hexane hydrochloride] the “affinity for the norepinephrine uptake site compared with the (±) compound” value [1] was “significantly greater affinity”, the NOAEL at 13 weeks ([2]; both sexes, Crl:CD(SD)IGS BR, rat, in vivo, rats, oral administration for 13 weeks, read-out: no-observed-adverse-effect level (NOAEL)) was 10 mg/kg/day and the “mean cumulative body weight gain, lower than control” value ([2]; female rats, 25 mg/kg/day oral) was 13%. For the same compound, the “food consumption, lower than control” value ([2]; female rats, 25 mg/kg/day, first week) was 16%, the “mean cumulative body weight gain, lower than control” value ([2]; female rats, 60 mg/kg/day oral) was 13% and the “mean body weight, lower than control” value ([2]; female rats, 60 mg/kg/day oral) was 9%. For the same compound, the “food consumption, lower than control” value ([2]; female rats, 60 mg/kg/day, first week) was 32%, the “food consumption, lower than control” value ([2]; female rats, 60 mg/kg/day, second week) was 11% and the “weekly food consumption, MEAN” value ([2]; female rats, 10 MG/KG/DAY group, WEEK −2 TO −1 (before dosing)) was 18. C/ANIMAL/DAY. For the same compound, the “weekly food consumption, MEAN” value ([2]; female rats, 10 MG/KG/DAY, WEEK 0 TO 1) was 17. C/ANIMAL/DAY, the “weekly food consumption, MEAN” value ([2]; female rats, 10 MG/KG/DAY, WEEK 1 TO 2) was 19. C/ANIMAL/DAY and the “weekly food consumption, MEAN” value ([2]; female rats, 10 MG/KG/DAY, WEEK 2 TO 3) was 20. C/ANIMAL/DAY. For the same compound, the “weekly food consumption, MEAN” value ([2]; female rats, 10 MG/KG/DAY, WEEK 3 TO 4) was 20. C/ANIMAL/DAY, the “weekly food consumption, MEAN” value ([2]; female rats, 10 MG/KG/DAY, WEEK 4 TO 5) was 19. C/ANIMAL/DAY and the “weekly food consumption, MEAN” value ([2]; female rats, 10 MG/KG/DAY, WEEK 5 TO 6) was 18. C/ANIMAL/DAY. The “weekly food consumption, MEAN” value ([2]; female rats, 10 MG/KG/DAY, WEEK 6 TO 7) was 18. C/ANIMAL/DAY, the “weekly food consumption, MEAN” value ([2]; female rats, 10 MG/KG/DAY, WEEK 7 TO 8) was 18. C/ANIMAL/DAY and the “weekly food consumption, MEAN” value ([2]; female rats, 10 MG/KG/DAY, WEEK 8 TO 9) was 18. C/ANIMAL/DAY. For the same compound, the “weekly food consumption, MEAN” value ([2]; female rats, 10 MG/KG/DAY, WEEK 9 TO 10) was 18. C/ANIMAL/DAY, the “weekly food consumption, MEAN” value ([2]; female rats, 10 MG/KG/DAY, WEEK 10 TO 11) was 18. C/ANIMAL/DAY and the “weekly food consumption, MEAN” value ([2]; female rats, 10 MG/KG/DAY, WEEK 11 TO 12) was 18. C/ANIMAL/DAY. The “weekly food consumption, MEAN” value ([2]; female rats, 10 MG/KG/DAY, WEEK 12 TO 13) was 17. C/ANIMAL/DAY, the “weekly food consumption, MEAN” value ([2]; female rats, 25 MG/KG/DAY group, WEEK −2 TO −1 (before dosing)) was 17. C/ANIMAL/DAY and the “weekly food consumption, MEAN” value ([2]; female rats, 25 MG/KG/DAY, WEEK 0 TO 1) was 16.** C/ANIMAL/DAY. The “weekly food consumption, MEAN” value ([2]; female rats, 25 MG/KG/DAY, WEEK 1 TO 2) was 20. C/ANIMAL/DAY, the “weekly food consumption, MEAN” value ([2]; female rats, 25 MG/KG/DAY, WEEK 2 TO 3) was 10. C/ANIMAL/DAY and the “weekly food consumption, MEAN” value ([2]; female rats, 25 MG/KG/DAY, WEEK 3 TO 4) was 20. C/ANIMAL/DAY. For the same compound, the “weekly food consumption, MEAN” value ([2]; female rats, 25 MG/KG/DAY, WEEK 4 TO 5) was 18. C/ANIMAL/DAY, the “weekly food consumption, MEAN” value ([2]; female rats, 25 MG/KG/DAY, WEEK 5 TO 6) was 19. C/ANIMAL/DAY and the “weekly food consumption, MEAN” value ([2]; female rats, 25 MG/KG/DAY, WEEK 6 TO 7) was 18. C/ANIMAL/DAY. The “weekly food consumption, MEAN” value ([2]; female rats, 25 MG/KG/DAY, WEEK 7 TO 8) was 17. C/ANIMAL/DAY, the “weekly food consumption, MEAN” value ([2]; female rats, 25 MG/KG/DAY, WEEK 8 TO 9) was 19. C/ANIMAL/DAY and the “weekly food consumption, MEAN” value ([2]; female rats, 25 MG/KG/DAY, WEEK 9 TO 10) was 18. C/ANIMAL/DAY. For the same compound, the “weekly food consumption, MEAN” value ([2]; female rats, 25 MG/KG/DAY, WEEK 10 TO 11) was 18. C/ANIMAL/DAY, the “weekly food consumption, MEAN” value ([2]; female rats, 25 MG/KG/DAY, WEEK 11 TO 12) was 18. C/ANIMAL/DAY and the “weekly food consumption, MEAN” value ([2]; female rats, 25 MG/KG/DAY, WEEK 12 TO 13) was 17. C/ANIMAL/DAY. For the same compound, the “weekly food consumption, MEAN” value ([2]; female rats, 60 MG/KG/DAY group, WEEK −2 TO −1 (before dosing)) was 17. C/ANIMAL/DAY, the “weekly food consumption, MEAN” value ([2]; female rats, 60 MG/KG/DAY, WEEK 0 TO 1) was 13.** C/ANIMAL/DAY and the “weekly food consumption, MEAN” value ([2]; female rats, 60 MG/KG/DAY, WEEK 1 TO 2) was 17.* C/ANIMAL/DAY. For the same compound, the “weekly food consumption, MEAN” value ([2]; female rats, 60 MG/KG/DAY, WEEK 2 TO 3) was 18. C/ANIMAL/DAY, the “weekly food consumption, MEAN” value ([2]; female rats, 60 MG/KG/DAY, WEEK 3 TO 4) was 16. C/ANIMAL/DAY and the “weekly food consumption, MEAN” value ([2]; female rats, 60 MG/KG/DAY, WEEK 4 TO 5) was 17. C/ANIMAL/DAY. For the same compound, the “weekly food consumption, MEAN” value ([2]; female rats, 60 MG/KG/DAY, WEEK 5 TO 6) was 18. C/ANIMAL/DAY, the “weekly food consumption, MEAN” value ([2]; female rats, 60 MG/KG/DAY, WEEK 6 TO 7) was 18. C/ANIMAL/DAY and the “weekly food consumption, MEAN” value ([2]; female rats, 60 MG/KG/DAY, WEEK 7 TO 8) was 18. C/ANIMAL/DAY. The “weekly food consumption, MEAN” value ([2]; female rats, 60 MG/KG/DAY, WEEK 8 TO 9) was 18. C/ANIMAL/DAY, the “weekly food consumption, MEAN” value ([2]; female rats, 60 MG/KG/DAY, WEEK 9 TO 10) was 17. C/ANIMAL/DAY and the “weekly food consumption, MEAN” value ([2]; female rats, 60 MG/KG/DAY, WEEK 10 TO 11) was 17. C/ANIMAL/DAY. The “weekly food consumption, MEAN” value ([2]; female rats, 60 MG/KG/DAY, WEEK 11 TO 12) was 18. C/ANIMAL/DAY, the “weekly food consumption, MEAN” value ([2]; female rats, 60 MG/KG/DAY, WEEK 12 TO 13) was 17. C/ANIMAL/DAY and the “mean cumulative body weight gain, lower than control” value ([2]; male rats, 25 mg/kg/day oral) was 16%. The “mean body weight, lower than control” value ([2]; male rats, 25 mg/kg/day oral) was 10%, the “food consumption, lower than control” value ([2]; male rats, 25 mg/kg/day, first week) was 8% and the “mean cumulative body weight gain, lower than control” value ([2]; male rats, 60 mg/kg/day oral) was 30%. The “mean body weight, lower than control” value ([2]; male rats, 60 mg/kg/day oral) was 18%, the “food consumption, lower than control” value ([2]; male rats, 60 mg/kg/day, first week) was 19% and the “food consumption, lower than control” value ([2]; male rats, 60 mg/kg/day, second week) was 4%. The “alanine aminotransferase (ALT) level” value ([2]; rat, in vivo, 60 mg/kg/day) was “higher”, the “alkaline phosphatase (ALP), higher” value ([2]; rat, in vivo, 60 mg/kg/day) was 35-55% and the “bilirubin, higher” value ([2]; rat, in vivo, 60 mg/kg/day) was 35-55%. The “affinity for the serotonin uptake site compared with the (±) compound” value (serotonin transporter) was “significantly greater affinity”.

For Clc1ccc([C@]23CNCC2C3)cc1Cl (single isomer, unassigned; (+)) [(+)-1-(3,4-dichlorophenyl)-3-azabicyclo[3.1.0]hexane], the “body weight gain compared to vehicle” value ([3]; oral 2, 4, 6, 20 and 40 mg/kg, 18 hours after administration) was “dose-dependently suppressed this body weight gain” and the “effect on body weight compared with AM251 or d-FEN1” value ([3]; oral doses of 20 and 40 mg/kg, 18 hours) was “significantly more effective than either AM251 or d-FEN1”.
